Measured values published in ChEMBL document CHEMBL1139102, “Comparison of N,N'-diarylsquaramides and N,N'-diarylureas as antagonists of the CXCR2 chemokine receptor” (Bioorg Med Chem Lett, 2007).
≈ marks a conversion by molar mass, not a printed value. Where “and” joins values, the source holds several entries; their conditions need not be identical. Identical values can stand only once.

What was measured:
[1] = Dissociation constant, pKa at pH 7.4; type: physicochemical
[2] = target: T1, C-X-C chemokine receptor type 2 (Homo sapiens, UniProt P25025); assay: Displacement of [125I]IL8 from human recombinant CXCR2 expressed in CHO cells; type: cell-based
T1 sequence (P25025 whole entry): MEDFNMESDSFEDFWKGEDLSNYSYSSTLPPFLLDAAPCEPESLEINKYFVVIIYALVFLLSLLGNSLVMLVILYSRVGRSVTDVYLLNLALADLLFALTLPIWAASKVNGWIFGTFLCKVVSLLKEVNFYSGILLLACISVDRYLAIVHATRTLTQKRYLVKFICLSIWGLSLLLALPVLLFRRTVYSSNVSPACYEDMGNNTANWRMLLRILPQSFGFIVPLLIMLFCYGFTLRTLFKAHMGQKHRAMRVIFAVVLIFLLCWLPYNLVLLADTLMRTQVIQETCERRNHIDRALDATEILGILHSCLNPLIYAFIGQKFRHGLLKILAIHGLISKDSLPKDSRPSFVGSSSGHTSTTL

[3] = Aqueous solubility in phosphate buffer at pH 7.4; type: physicochemical
[4] = Volume of distribution at steady state in Sprague-Dawley rat at 4 umol/kg, iv and 8 umol/kg, po; type: ADME, organism-based; settings: in vivo, read-out: Vdss
[5] = Clearance in Sprague-Dawley rat at 4 umol/kg, iv and 8 umol/kg, po; type: ADME, organism-based; settings: in vivo
in vivo = settings: Sprague-Dawley, rat, po, 8 umol/kg

Compound	IC50 [2]	solubility [3] [µM]	further results
N#Cc1ccc(Nc2c(O)c(=O)/c2=N\c2ccccc2)c(O)c1	15 nM		pKa [1]: 7.09
O=c1c(Nc2ccccc2)c(Nc2cc(Cl)c([N+](=O)[O-])cc2O)c1=O	52 nM		
O=c1c(Nc2ccccc2)c(Nc2cc(Cl)ccc2O)c1=O	54 nM		
NC(=O)c1c(Cl)ccc(Nc2c(Nc3ccccc3)c(=O)c2=O)c1O	14 nM	88 (≈ 31.5 µg/mL)	
CCCc1ccccc1Nc1c(Nc2ccc(Cl)c(S(=O)(=O)N3CCN(CC)CC3)c2O)c(=O)c1=O.O=C(O)C(F)(F)F	8 nM	78	Vd [4]: 0.89 L/kg; clearance [5]: 7 mL/min/kg
O=c1c(Nc2ccccc2)c(Nc2c(O)cccc2[N+](=O)[O-])c1=O	358 nM		
N#Cc1ccc(Nc2c(Nc3ccccc3Br)c(=O)c2=O)c(O)c1	15 nM and 36 nM	14 (≈ 5.38 µg/mL)	Vd [4]: 0.15 L/kg; clearance [5]: 15 mL/min/kg
O=c1c(Nc2ccc([N+](=O)[O-])cc2O)c(Nc2ccccc2Br)c1=O	37 nM		
N#Cc1cccc(NC(=O)Nc2ccccc2)c1O	276 nM		
O=C(Nc1ccccc1O)Nc1ccccc1Br	> 9000 nM		
Cc1ccccc1Nc1c(Nc2ccc(C)c(S(=O)(=O)N(C)C)c2O)c(=O)c1=O	15 nM	10 (≈ 4.15 µg/mL)	Vd [4]: 0.25 L/kg; clearance [5]: 4 mL/min/kg
CN1CCN(S(=O)(=O)c2c(F)ccc(Nc3c(Nc4ccccc4Br)c(=O)c3=O)c2O)CC1.O=C(O)C(F)(F)F	13 nM	44	
CN1CCCN(C(=O)c2cccc(Nc3c(Nc4ccccc4)c(=O)c3=O)c2O)CC1.O=C(O)C(F)(F)F	44 nM	178	Vd [4]: 0.33 L/kg; clearance [5]: 15 mL/min/kg
N#Cc1cccc(Nc2c(Nc3ccccc3)c(=O)c2=O)c1O	32 nM		
Cc1ccc(NC(=O)Nc2ccccc2)c(O)c1	25000 nM		
Cc1ccc(O)c(NC(=O)Nc2ccccc2)c1	> 30000 nM		
Cc1cccc(O)c1NC(=O)Nc1ccccc1	> 30000 nM		
O=C(Nc1ccccc1)Nc1c(O)cccc1[N+](=O)[O-]	> 30000 nM		

Compound	IC50 [2]	solubility [3] [µM]	further results
O=c1c(O)c(Nc2ccc([N+](=O)[O-])cc2O)/c1=N/c1ccccc1	22 nM		
O=c1c(Nc2ccccc2O)c(Nc2ccccc2Br)c1=O	51 nM		
COCCNS(=O)(=O)c1c(Cl)ccc(Nc2c(Nc3ccccc3)c(=O)c2=O)c1O	8 nM	73 (≈ 33 µg/mL)	bioavailability (in vivo): 23%; Vd [4]: 0.14 L/kg; clearance [5]: 0.6 mL/min/kg
Cc1ccc(Nc2c(Nc3ccccc3)c(=O)c2=O)c(O)c1	205 nM		
CN1CCN(C(=O)c2cccc(Nc3c(Nc4ccccc4)c(=O)c3=O)c2O)CC1.O=C(O)C(F)(F)F	27 nM	121	
O=C(Nc1ccccc1)Nc1cc(Cl)ccc1O	> 30000 nM		
Cc1ccc(O)c(Nc2c(Nc3ccccc3)c(=O)c2=O)c1	308 nM		
Cc1cccc(O)c1Nc1c(Nc2ccccc2)c(=O)c1=O	1720 nM		
O=C(c1cccc(Nc2c(Nc3ccccc3C(F)(F)F)c(=O)c2=O)c1O)N1CCCC1		86 (≈ 38.3 µg/mL)	Vd [4]: 0.66 L/kg; clearance [5]: 45 mL/min/kg
O=C(c1c(Cl)ccc(Nc2c(Nc3ccccc3Br)c(=O)c2=O)c1O)N1CCCC1	28 nM	143 (≈ 70.2 µg/mL)	
O=c1c(O)c(Nc2ccccc2)/c1=N/c1ccccc1O	235 nM		pKa [1]: 8.6
O=C(Nc1ccccc1)Nc1cc(Cl)c([N+](=O)[O-])cc1O	950 nM		
O=c1c(Nc2ccc(Cl)cc2O)c(Nc2ccccc2Br)c1=O	32 nM	3 (≈ 1.18 µg/mL)	
CN1CCCN(S(=O)(=O)c2c(Cl)ccc(Nc3c(Nc4ccccc4Cl)c(=O)c3=O)c2O)CC1.Cl	20 nM	160	Vd [4]: 0.31 L/kg; clearance [5]: 4 mL/min/kg
Cl.O=c1c(Nc2ccccc2)c(Nc2ccc(Cl)c(S(=O)(=O)N3CCC(N4CCCCC4)CC3)c2O)c1=O		7	bioavailability (in vivo): 5%; Vd [4]: 0.24 L/kg; clearance [5]: 1.2 mL/min/kg
CN1CCCN(S(=O)(=O)c2c(Cl)ccc(Nc3c(Nc4ccccc4Br)c(=O)c3=O)c2O)CC1.Cl	10 nM	138	Vd [4]: 0.24 L/kg; clearance [5]: 4 mL/min/kg
O=C(Nc1ccccc1)Nc1ccccc1O	> 30000 nM		
